Key:
CRBN-DDB1 = CRBN-DDB1 (Homo sapiens (Human), UniProt Q96SW2); assay: CRBN HTRF assay (Cy5-Thalidomide probe displacement); type: binding; conditions: CRBN-DDB1 2.5 nM, Cy5-Thalidomide 100 nM, 30 min; Ki from geometric mean IC50 by Cheng-Prusoff
Method in brief: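 HTRF displacement of Cy5-thalidomide probe (100 nM) from His-CRBN-DDB1 (2.5 nM) with anti-His terbium cryptate, in HEPES/NaCl/TCEP/EDTA/Tween20 buffer. 10-point 1:3 compound series, 30 min at ambient temperature; signal normalised to DMSO and lenalidomide controls, IC50 fitted and Ki derived by Cheng-Prusoff.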

CDK2 = CDK2 (Homo sapiens (Human), UniProt P24941); assay: CDK2 NanoBiT assay (HiBiT-tagged CDK2 degradation); type: cell-based; conditions: C-terminal HiBiT tag on CDK2, LgBiT, 24 hours
Method in brief: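 HEK293 line with CRISPR knock-in C-terminal HiBiT-tagged CDK2 and stable LgBiT, preincubated 16 h with live-cell substrate, then compound-treated 24 h at 37° C, 5% CO2 (30 μM stock). Luminescence normalized to plate negative and positive controls; EC50 from 3-parameter logistic fit, Hill slope 1.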

Sequence of CRBN-DDB1 (Q96SW2 whole entry): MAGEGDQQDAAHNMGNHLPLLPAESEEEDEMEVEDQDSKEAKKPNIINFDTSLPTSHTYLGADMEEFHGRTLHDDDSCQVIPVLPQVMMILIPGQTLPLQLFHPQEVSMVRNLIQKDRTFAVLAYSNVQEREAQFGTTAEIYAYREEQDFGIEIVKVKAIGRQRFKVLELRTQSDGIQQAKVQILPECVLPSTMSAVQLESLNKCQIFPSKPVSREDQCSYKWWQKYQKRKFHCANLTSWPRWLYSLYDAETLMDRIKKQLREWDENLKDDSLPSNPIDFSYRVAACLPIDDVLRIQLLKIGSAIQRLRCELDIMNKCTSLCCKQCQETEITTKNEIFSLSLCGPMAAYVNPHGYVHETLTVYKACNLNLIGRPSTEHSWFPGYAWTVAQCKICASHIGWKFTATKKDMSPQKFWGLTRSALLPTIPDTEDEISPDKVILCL
Sequence of CRBN-DDB1 (Q16531 whole entry partner): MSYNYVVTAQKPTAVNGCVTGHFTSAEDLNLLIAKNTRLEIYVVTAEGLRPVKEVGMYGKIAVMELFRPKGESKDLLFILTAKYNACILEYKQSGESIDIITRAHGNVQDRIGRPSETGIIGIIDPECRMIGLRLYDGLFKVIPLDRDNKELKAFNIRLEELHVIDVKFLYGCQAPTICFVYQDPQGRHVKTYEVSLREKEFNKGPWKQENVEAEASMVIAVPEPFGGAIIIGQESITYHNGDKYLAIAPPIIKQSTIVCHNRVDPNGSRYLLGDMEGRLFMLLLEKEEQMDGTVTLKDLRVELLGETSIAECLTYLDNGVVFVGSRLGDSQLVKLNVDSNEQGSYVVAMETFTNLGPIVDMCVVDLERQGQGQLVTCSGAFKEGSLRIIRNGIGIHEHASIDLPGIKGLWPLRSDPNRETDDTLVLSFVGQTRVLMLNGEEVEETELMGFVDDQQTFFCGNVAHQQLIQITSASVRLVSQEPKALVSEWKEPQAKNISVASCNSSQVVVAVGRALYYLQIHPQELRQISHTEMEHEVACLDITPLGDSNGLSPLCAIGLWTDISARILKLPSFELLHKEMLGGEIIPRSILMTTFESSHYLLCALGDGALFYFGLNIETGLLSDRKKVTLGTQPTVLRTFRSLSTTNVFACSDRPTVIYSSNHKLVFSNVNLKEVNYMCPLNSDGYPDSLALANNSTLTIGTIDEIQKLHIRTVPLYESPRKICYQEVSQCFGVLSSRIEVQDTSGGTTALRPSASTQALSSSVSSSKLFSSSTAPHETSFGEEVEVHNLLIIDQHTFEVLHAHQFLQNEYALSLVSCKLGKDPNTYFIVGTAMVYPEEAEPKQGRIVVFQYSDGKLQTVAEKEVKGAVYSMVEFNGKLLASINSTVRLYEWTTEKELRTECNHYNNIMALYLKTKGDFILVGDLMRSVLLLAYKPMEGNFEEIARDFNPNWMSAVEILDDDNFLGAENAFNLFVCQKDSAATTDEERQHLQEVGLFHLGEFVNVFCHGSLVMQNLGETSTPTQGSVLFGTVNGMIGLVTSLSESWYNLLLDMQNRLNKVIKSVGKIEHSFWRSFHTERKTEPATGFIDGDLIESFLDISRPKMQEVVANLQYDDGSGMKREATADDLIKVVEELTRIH

C[C@@H]1[C@@H](Nc2nnc(C3CC4(CCC4)C3)o2)CN1c1cc(F)c(C2CCC(=O)NC2=O)c(F)c1 (stereo partly drawn) [Compound 142, 3-(2,6-difluoro-4-((2R,3S)-2-methyl-3-((5-(spiro[3.3]heptan-2-yl)-1,3,4-oxadiazol-2-yl)amino)azetidin-1-yl)phenyl)piperidine-2,6-dione]
Ki (CRBN-DDB1): ≤ 100 nM
Dmax (CDK2; HEK293, HEK293 clonal line): 50 to 80%

Cc1ccc(C(=O)N2CC(OC(=O)NC3CN(c4cc(F)c(C5CCC(=O)NC5=O)c(F)c4)C3)C2)cc1 (stereo not shown) [Compound 23, 1-(4-methylbenzoyl)azetidin-3-yl (1-(4-(2,6-dioxopiperidin-3-yl)-3,5-difluorophenyl)azetidin-3-yl)carbamate]
Ki (CRBN-DDB1): ≤ 100 nM
Dmax (CDK2; HEK293, HEK293 clonal line): 50 to 80%

CC(C)(C)[Si](C)(C)O[C@H]1C[C@H](OC(=O)NC2CN(c3cc(F)c(C4CCC(=O)NC4=O)c(F)c3)C2)C1 (stereo partly shown) [Compound 47, (1r, 3r)-3-((tert-butyldimethylsilyl)oxy)cyclobutyl (1-(4-(2,6-dioxopiperidin-3-yl)-3,5-difluorophenyl)azetidin-3-yl)carbamate]
Ki (CRBN-DDB1): ≤ 100 nM
Dmax (CDK2; HEK293 clonal line): > 80%

O=C1CCC(c2c(F)cc(N3CC(NC(=O)OCc4ccccc4)C3)cc2F)C(=O)N1 (stereo not shown) [Compound 37, benzyl (1-(4-(2,6-dioxopiperidin-3-yl)-3,5-difluorophenyl)azetidin-3-yl)carbamate]
Ki (CRBN-DDB1): 100 to 1000 nM
Dmax (CDK2; HEK293, HEK293 clonal line): 50 to 80%

CN(C(=O)N1CC(OC(=O)NC2CN(c3cc(F)c(C4CCC(=O)NC4=O)c(F)c3)C2)C1)c1ccc(F)cc1 (stereo not shown) [Compound 72, 1-((4-fluorophenyl)(methyl)carbamoyl)azetidin-3-yl (1-(4-(2,6-dioxopiperidin-3-yl)-3,5-difluorophenyl)azetidin-3-yl)carbamate]
Ki (CRBN-DDB1): ≤ 100 nM
Dmax (CDK2; HEK293, HEK293 clonal line): > 80%

Cc1ccc(-c2nnc(N[C@H]3CN(c4cc(F)c(C5CCC(=O)NC5=O)c(F)c4)[C@@H]3C)o2)cc1 (stereo partly drawn) [Compound 143, 3-(2,6-difluoro-4-((2R,3S)-2-methyl-3-((5-(p-tolyl)-1,3,4-oxadiazol-2-yl)amino)azetidin-1-yl)phenyl)piperidine-2,6-dione]
Ki (CRBN-DDB1): 100 to 1000 nM
Dmax (CDK2; HEK293, HEK293 clonal line): 50 to 80%

CC(C)C1CC(COC(=O)NC2CN(c3cc(F)c(C4CCC(=O)NC4=O)c(F)c3)C2)C1 (stereo not shown) [Compound 68, (3-isopropylcyclobutyl)methyl (1-(4-(2,6-dioxopiperidin-3-yl)-3,5-difluorophenyl)azetidin-3-yl)carbamate]
Ki (CRBN-DDB1): 100 to 1000 nM
Dmax (CDK2; HEK293, HEK293 clonal line): > 80%

CN(C(=O)N1CC(OC(=O)NC2CN(c3cc(F)c(C4CCC(=O)NC4=O)c(F)c3)C2)C1)c1cccc(Cl)c1 (stereo not shown) [Compound 8, 1-((3-chlorophenyl)(methyl)carbamoyl)azetidin-3-yl (1-(4-(2,6-dioxopiperidin-3-yl)-3,5-difluorophenyl)azetidin-3-yl)carbamate]
Ki (CRBN-DDB1): ≤ 100 nM
Dmax (CDK2; HEK293, HEK293 clonal line): > 80%

O=C1CCC(c2c(Cl)cc(N3CC(Nc4nnc(C5CC6(CCC6)C5)o4)C3)cc2Cl)C(=O)N1 (stereo not shown) [Compound 102, 3-(2,6-dichloro-4-(3-((5-(spiro[3.3]heptan-2-yl)-1,3,4-oxadiazol-2-yl)amino)azetidin-1-yl)phenyl)piperidine-2,6-dione]
Ki (CRBN-DDB1): ≤ 100 nM
Dmax (CDK2; HEK293, HEK293 clonal line): > 80%

CC(C)(C)O[C@H]1C[C@@H](OC(=O)NC2CN(c3cc(F)c(C4CCC(=O)NC4=O)c(F)c3)C2)C1 (stereo partly shown) [Compound 46, (1s, 3s)-3-(tert-butoxy)cyclobutyl (1-(4-(2,6-dioxopiperidin-3-yl)-3,5-difluorophenyl)azetidin-3-yl)carbamate]
Ki (CRBN-DDB1): ≤ 100 nM
Dmax (CDK2; HEK293, HEK293 clonal line): 50 to 80%

O=C1CCC(c2c(F)cc(N3CC(NC(=O)OC4CN(C(=O)C5CC5)C4)C3)cc2F)C(=O)N1 (stereo not shown) [Compound 41, 1-(cyclopropanecarbonyl)azetidin-3-yl (1-(4-(2,6-dioxopiperidin-3-yl)-3,5-difluorophenyl)azetidin-3-yl)carbamate]
Ki (CRBN-DDB1): ≤ 100 nM
Dmax (CDK2; HEK293, HEK293 clonal line): 10 to 50%

Reference: US20250263395A1, “COMPOUNDS THAT MEDIATE PROTEIN DEGRADATION AND METHODS OF USE THEREOF” (Monte Rosa Therapeutics AG, priority 2022, published 2025)
